Results published in US9556164B2, “Salts of Dasatinib in crystalline form” (BASF SE, priority 2013, dated 2017).

Details: DVS at 25° C., humidity program 50% r.h. to 95% r.h. and back to 50% r.h.
Procedure: Dynamic vapor sorption: DVS is performed at 25° C. with an SPS11-100n “Sorptions Prüfsystem” of Projekt Messtechnik, D-89077 Ulm (Germany). About 25 mg of sample is put into an aluminum sample pan. Humidity program: 50% relative humidity (r.h.) for 2 hours, 50% r.h. to 95% r.h. (humidity change rate 5% per hour), 95% r.h. for 5 hours, 95% r.h. to 50% r.h. (humidity change rate 5% per hour), 50% r.h. for 2 hours.

Cc1nc(Nc2ncc(C(=O)Nc3c(C)cccc3Cl)s2)cc(N2CCN(CCO)CC2)n1.O=C1NS(=O)(=O)c2ccccc21 [Example 5, Dasatinib saccharinate (hydrate)]
hygroscopicity by DVS: not hygroscopic
